Laboratory results: patent US10913781B2, “Pepducin design and use” (Tufts Medical Center, Inc., priority 2011, dated 2021)

Experiments:
PAR2 [1] = biological target: T1, PAR2 (Mus musculus, UniProt P55086); assay: SLIGRL-induced mouse paw edema; assay type: in vivo; set-up: from tissue; host or cells: living C57BL/6 mice, hindpaw; conditions: WT C57BL/6 mice; 10 mg/kg s.c.
Procedure: (A) λ-carrageenan/kaolin or (B) the PAR2 specific agonist SLIGRL was administered by intraplantar injection to the left hindpaw of C57BL/6 wild-type or PAR2^−/− mice that were treated with subcutaneous (s.c.) injection of 10 mg/kg of P2pal-18S or vehicle. Paw area was measured and reported as fold-increase relative to baseline paw area. (C) Histology of representative H&E-stained footpads 7 h after λ-carrageenan/kaolin injection and quantification of the infiltrating inflammatory cells at 40× magnification. […]
To evaluate the in vivo efficacy and specificity of P2pal-18S, the ability of the pepducins of the present invention was tested to protect against inflammatory hindlimb paw edema in wild-type (WT) and PAR2-deficient mouse strains (Damiano B P, et al. (1999) J Pharmacol Exp Ther 288: 671-78.) Acute inflammatory edema was induced by an intraplantar injection of λ-carrageenan and kaolin, irritants which cause a massive leukocytosis and hyperemic response, which leads to localized swelling. PAR2-dependent activity of an embodiment of the present invention, polypeptide P2pal-18S, was directly assessed by quantifying its inhibitory effects against the PAR2-specific agonist SLIGRL when injected into the hind footpad of WT C57BL/6 mice. […]

PAR2 [2] = biological target: T1, PAR2; assay: Mouse neutrophil chemotaxis to trypsin; assay type: cell-based; conditions: 30 nM trypsin
Procedure: (A) Human neutrophils (n=4 normal volunteers) were analyzed for surface expression of human PAR1, PAR2, and PAR4 by flow cytometry with PAR-specific antibodies. […] Chemotaxis index is the ratio of directed versus random migration over 30 min through a 5-μm pore filter.
The ability of some pepducin embodiments of the invention to antagonize PAR2-dependent activity of human neutrophils was tested. Neutrophils were isolated from the peripheral blood of healthy human volunteers and found to express high levels of surface PAR2 and PAR4 and lower apparent levels of PAR1 by flow cytometry (FIG. 3A). […] As human PAR2 shares 85% identity with mouse PAR2 and the mouse i3 loop retains all of the critical pharmacophores identified in the human PAR2 i3 loop, cross-species inhibition with mouse cells was tested.

PAR2-homodimers = biological target: T2, PAR2-homodimers (Homo sapiens, UniProt P55085, Q172R/R173Q/R36A); assay: Migration of HEK cells co-expressing PAR2-R36A and PAR2-RQ toward trypsin; assay type: cell-based; conditions: 30 nM trypsin; 18 h
T2 construct: expressed in transfected cells; host or cells: HEK
Procedure: (A) PAR2 antagonist pepducins P2pal-18S and P2pal-14GQ inhibit calcium flux induced by PAR2 (SLIGRL) (SEQ ID NO:4) but not PAR1 (TFLLRN) (SEQ ID NO:2) agonists. SW620 cells were stably transfected with PAR1 and pretreated for 1 min with various concentrations of P2pal-18S or P2pal-14GQ and then stimulated with 30 μM PAR agonist. […] Cells were stimulated with 1 μM TFLLRN (SEQ ID NO:2), 1 μM SLIGRL (SEQ ID NO:4) or 100 μM AYPGKF (SEQ ID NO:5) and [^3H]-InsP formation measured over 30 min. (C) SW620 cells were treated with the indicated concentrations of P2pal-18S or P2pal-14GQ in the upper well of an 8-μm pore Boyden chamber and allowed to migrate for 18 h towards 10 μM of the PAR2 specific agonist SLIGRL in the lower chamber. The migration to RPMI/0.1% FBS represents random migration. (D) Migration of HEK cells transiently transfected with PAR2 (wild-type, WT), or PAR2-R36A/PAR2-RQ toward chemotactic gradients of 30 nM trypsin in the absence or presence of the indicated concentration of P2pal-18S for 18 h in a transwell apparatus ([…]). Data (n=2-4) are mean±SEM. *, P<0.05 and **, P<0.005.
To provide functional evidence that one PAR2 receptor can interact with an adjacent PAR2 receptor, a signaling dead PAR2-RQ mutant was constructed by transposing residues at Q172 and R173 located in the critical ‘DRY’ TM3 motif (FIG. 1A, the second set of sequence labeled as “QR->RQ”). […]

T1 sequence (P55086 26-399): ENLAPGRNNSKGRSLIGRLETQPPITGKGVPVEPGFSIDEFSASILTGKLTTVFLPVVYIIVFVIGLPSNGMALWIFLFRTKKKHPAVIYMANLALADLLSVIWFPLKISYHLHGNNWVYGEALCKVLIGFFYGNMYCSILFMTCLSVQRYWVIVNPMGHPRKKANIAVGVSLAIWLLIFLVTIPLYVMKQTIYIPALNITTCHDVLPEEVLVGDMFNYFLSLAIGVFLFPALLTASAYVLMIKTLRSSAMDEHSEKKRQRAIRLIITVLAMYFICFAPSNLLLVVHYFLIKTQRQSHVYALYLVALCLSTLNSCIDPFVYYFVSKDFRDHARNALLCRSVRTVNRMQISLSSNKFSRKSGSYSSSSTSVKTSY
T2 sequence (P55085 26-397 R36A): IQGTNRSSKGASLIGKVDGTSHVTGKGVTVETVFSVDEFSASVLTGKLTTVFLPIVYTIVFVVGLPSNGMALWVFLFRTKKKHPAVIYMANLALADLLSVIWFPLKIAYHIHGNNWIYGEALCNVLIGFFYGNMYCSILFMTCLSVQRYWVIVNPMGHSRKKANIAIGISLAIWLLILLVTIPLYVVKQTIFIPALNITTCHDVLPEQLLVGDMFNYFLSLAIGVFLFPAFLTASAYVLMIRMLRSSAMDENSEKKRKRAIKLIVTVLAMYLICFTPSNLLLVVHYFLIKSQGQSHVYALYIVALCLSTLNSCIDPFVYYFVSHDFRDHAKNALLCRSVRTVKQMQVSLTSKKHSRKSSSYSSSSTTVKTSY
T2 sequence (P55085 37-397 Q172R/R173Q): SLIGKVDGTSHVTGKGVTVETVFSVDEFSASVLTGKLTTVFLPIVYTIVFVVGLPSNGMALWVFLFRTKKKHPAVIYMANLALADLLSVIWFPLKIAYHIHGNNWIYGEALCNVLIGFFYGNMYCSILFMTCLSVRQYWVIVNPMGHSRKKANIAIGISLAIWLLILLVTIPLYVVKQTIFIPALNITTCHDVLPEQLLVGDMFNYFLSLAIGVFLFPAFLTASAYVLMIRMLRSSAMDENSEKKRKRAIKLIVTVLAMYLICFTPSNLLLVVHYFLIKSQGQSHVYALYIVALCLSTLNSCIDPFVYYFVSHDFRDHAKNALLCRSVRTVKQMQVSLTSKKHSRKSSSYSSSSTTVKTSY

Decrease in SLIGRL-induced edema (PAR2 [1]): 85% | Inhibition of mouse neutrophil migration (PAR2 [2]): completely inhibited | Suppression of chemotactic migration (transactivation of PAR2-homodimers) (PAR2-homodimers): complete suppression
Structure (SMILES): CCCCCCCCCCCCCCCC(=O)N[C@@H](CCCNC(=N)N)C(=O)N[C@@H](CO)C(=O)N[C@@H](CO)C(=O)N[C@@H](C)C(=O)N[C@@H](CCSC)C(=O)N[C@@H](CC(=O)O)C(=O)N[C@@H](CCC(=O)O)C(=O)N[C@@H](CC(N)=O)C(=O)N[C@@H](CO)C(=O)N[C@@H](CCC(=O)O)C(=O)N[C@@H](CCCCN)C(=O)N[C@@H](CCCCN)C(=O)N[C@@H](CCCNC(=N)N)C(=O)N[C@@H](CCCCN)C(=O)N[C@@H](CO)C(=O)N[C@@H](C)C(=O)N[C@H](C(=O)N[C@@H](CCCCN)C(N)=O)[C@@H](C)CC [P2pal-18S]
